{"source": "patent US7704995B2", "about": "(Exelixis, Inc., priority 2003, dated 2010)", "biological_target": "T1, Chk1 (Homo sapiens, UniProt O14757)", "T1 construct": "purchased Upstate Biotechnology", "T1 sequence (O14757 1-476)": "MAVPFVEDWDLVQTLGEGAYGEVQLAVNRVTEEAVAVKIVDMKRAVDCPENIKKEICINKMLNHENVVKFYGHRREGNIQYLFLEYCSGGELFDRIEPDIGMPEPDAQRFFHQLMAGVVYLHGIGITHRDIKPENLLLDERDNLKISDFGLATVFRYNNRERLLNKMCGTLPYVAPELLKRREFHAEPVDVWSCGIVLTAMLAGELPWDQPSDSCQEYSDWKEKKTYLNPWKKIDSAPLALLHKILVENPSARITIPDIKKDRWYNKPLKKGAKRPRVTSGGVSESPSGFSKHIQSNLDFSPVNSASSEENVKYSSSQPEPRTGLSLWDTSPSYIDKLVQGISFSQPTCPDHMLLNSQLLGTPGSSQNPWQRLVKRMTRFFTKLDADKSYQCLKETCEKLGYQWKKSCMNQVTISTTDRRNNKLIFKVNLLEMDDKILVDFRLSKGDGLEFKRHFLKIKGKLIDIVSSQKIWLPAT", "test": "Chk1 kinase assay: incorporation of γ-33P ATP into immobilized myelin basic protein", "type": "biochemical", "conditions": "Table 11, Chk1 only; class symbols A-D; read-out: Chk1 IC50", "outline": "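Plates coated with MBP, then kinase reactions in Hepes pH 7.6 buffer with 10 mM MgCl2 and 1% DMSO were started by adding unlabeled plus γ-33P ATP (10 μM for Chk1 at 10 nM enzyme; 30 μM for Chk2 at 20 nM enzyme). After 1 h at room temperature, plates were washed and counted.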", "note": "pIC50: −log10 of the molar value.", "data": [{"smiles": "Nc1ncc(-c2cccc(C(=O)NCc3ccc(F)c(F)c3)c2)nc1C(=O)N[C@H]1CCCNC1", "note": "[Example 1011, 3-amino-6-[3-({[(3,4-difluorophenyl)methyl]amino}carbonyl)phenyl]-N-[(3S)-piperidin-3-yl]pyrazine-2-carboxamide]", "values": [{"measurement": "pIC50", "value": "> 7.30"}]}, {"smiles": "Cc1ccc(Cl)c(CNC(=O)c2cccc(-c3cnc(N)c(C(=O)N[C@H]4CCCNC4)n3)c2)c1F", "note": "[Example 1012, 3-amino-6-[3-({[(6-chloro-2-fluoro-3-methylphenyl)methyl]amino}carbonyl)phenyl]-N-[(3S)-piperidin-3-yl]pyrazine-2-carboxamide]", "values": [{"measurement": "pIC50", "value": "> 7.30"}]}, {"smiles": "Cc1ccc(F)c(CNC(=O)c2cccc(-c3cnc(N)c(C(=O)N[C@H]4CCCNC4)n3)c2)c1Cl", "note": "[Example 1013, 3-amino-6-[3-({[(2-chloro-6-fluoro-3-methylphenyl)methyl]amino}carbonyl)phenyl]-N-[(3S)-piperidin-3-yl]pyrazine-2-carboxamide]", "values": [{"measurement": "pIC50", "value": "> 7.30"}]}, {"smiles": "Nc1ncc(-c2cccc(C(=O)NCc3c(F)ccc(F)c3Cl)c2)nc1C(=O)N[C@H]1CCCNC1", "note": "[Example 1014, 3-amino-6-[3-({[(2-chloro-3,6-difluorophenyl)methyl]amino}carbonyl)phenyl]-N-[(3S)-piperidin-3-yl]pyrazine-2-carboxamide]", "values": [{"measurement": "pIC50", "value": "> 7.30"}]}, {"smiles": "Nc1ncc(-c2cccc(C(=O)NCc3cc(Cl)ccc3Cl)c2)nc1C(=O)N[C@H]1CCCNC1", "note": "[Example 1015, 3-amino-6-[3-({[(2,5-dichlorophenyl)methyl]amino}carbonyl)phenyl]-N-[(3S)-piperidin-3-yl]pyrazine-2-carboxamide]", "values": [{"measurement": "pIC50", "value": "> 7.30"}]}, {"smiles": "Nc1ncc(-c2cccc(C(=O)NCc3ccc(F)c(F)c3F)c2)nc1C(=O)N[C@H]1CCCNC1", "note": "[Example 1016, 3-amino-N-[(3S)-piperidin-3-yl]-6-[3-({[(2,3,4-trifluorophenyl)methyl]amino}carbonyl)phenyl]pyrazine-2-carboxamide]", "values": [{"measurement": "pIC50", "value": "> 7.30"}]}, {"smiles": "Nc1ncc(-c2cccc(C(=O)NCc3cccc(F)c3F)c2)nc1C(=O)N[C@H]1CCCNC1", "note": "[Example 1017, 3-amino-6-[3-({[(2,3-difluorophenyl)methyl]amino}carbonyl)phenyl]-N-[(3S)-piperidin-3-yl]pyrazine-2-carboxamide]", "values": [{"measurement": "pIC50", "value": "> 7.30"}]}, {"smiles": "Cc1ccc(CNC(=O)c2cccc(-c3cnc(N)c(C(=O)N[C@H]4CCCNC4)n3)c2)cc1F", "note": "[Example 1018, 3-amino-6-[3-({[(3-fluoro-4-methylphenyl)methyl]amino}carbonyl)phenyl]-N-[(3S)-piperidin-3-yl]pyrazine-2-carboxamide]", "values": [{"measurement": "pIC50", "value": "> 7.30"}]}, {"smiles": "Nc1ncc(-c2cccc(C(=O)NCc3c(F)ccc(Cl)c3F)c2)nc1C(=O)N[C@H]1CCCCNC1", "note": "[Example 1019, 3-amino-N-[(3S)-azepan-3-yl]-6-[3-({[(3-chloro-2,6-difluorophenyl)methyl]amino}carbonyl)phenyl]pyrazine-2-carboxamide]", "values": [{"measurement": "pIC50", "value": "> 7.30"}]}, {"smiles": "Nc1ncc(-c2cccc(C(=O)NCc3ccc4c(c3)OCCO4)c2)nc1C(=O)N[C@H]1CCCCNC1", "note": "[Example 1020, 3-amino-N-[(3S)-azepan-3-yl]-6-(3-{[(2,3-dihydro-1,4-benzodioxin-6-ylmethyl)amino]carbonyl}phenyl)pyrazine-2-carboxamide]", "values": [{"measurement": "pIC50", "value": "> 7.30"}]}, {"smiles": "Nc1ncc(-c2cccc(C(=O)NCc3c(F)cccc3Cl)c2)nc1C(=O)N[C@H]1CCCCNC1", "note": "[Example 1021, 3-amino-N-[(3S)-azepan-3-yl]-6-[3-({[(2-chloro-6-fluorophenyl)methyl]amino}carbonyl)phenyl]pyrazine-2-carboxamide]", "values": [{"measurement": "pIC50", "value": "> 7.30"}]}, {"smiles": "Nc1ncc(-c2cccc(C(=O)NCc3c(F)cccc3F)c2)nc1C(=O)N[C@H]1CCCCNC1", "note": "[Example 1022, 3-amino-N-[(3S)-azepan-3-yl]-6-[3-({[(2,6-difluorophenyl)methyl]amino}carbonyl)phenyl]pyrazine-2-carboxamide]", "values": [{"measurement": "pIC50", "value": "> 7.30"}]}, {"smiles": "Nc1ncc(-c2cccc(C(=O)NCc3ccc(F)c(Cl)c3)c2)nc1C(=O)N[C@H]1CCCCNC1", "note": "[Example 1023, 3-amino-N-[(3S)-azepan-3-yl]-6-[3-({[(3-chloro-4-fluorophenyl)methyl]amino}carbonyl)phenyl]pyrazine-2-carboxamide]", "values": [{"measurement": "pIC50", "value": "> 7.30"}]}, {"smiles": "Nc1ncc(-c2cccc(C(=O)NCc3cccc(Cl)c3F)c2)nc1C(=O)N[C@H]1CCCCNC1", "note": "[Example 1024, 3-amino-N-[(3S)-azepan-3-yl]-6-[3-({[(3-chloro-2-fluorophenyl)methyl]amino}carbonyl)phenyl]pyrazine-2-carboxamide]", "values": [{"measurement": "pIC50", "value": "> 7.30"}]}, {"smiles": "Cc1c(Cl)cccc1CNC(=O)c1cccc(-c2cnc(N)c(C(=O)N[C@H]3CCCNC3)n2)c1", "note": "[Example 1025, 3-amino-6-[3-({[(3-chloro-2-methylphenyl)methyl]amino}carbonyl)phenyl]-N-[(3S)-piperidin-3-yl]pyrazine-2-carboxamide]", "values": [{"measurement": "pIC50", "value": "> 7.30"}]}, {"smiles": "COc1cccc(OC)c1CNC(=O)c1cccc(-c2cnc(N)c(C(=O)N[C@H]3CCCNC3)n2)c1", "note": "[Example 1026, 3-amino-6-{3-[({[2,6-bis(methyloxy)phenyl]methyl}amino)carbonyl]phenyl}-N-[(3S)-piperidin-3-yl]pyrazine-2-carboxamide]", "values": [{"measurement": "pIC50", "value": "6.00 to 7.30"}]}, {"smiles": "Nc1ncc(-c2cccc(C(=O)NCc3ccc(F)c(Br)c3)c2)nc1C(=O)N[C@H]1CCCNC1", "note": "[Example 1027, 3-amino-6-[3-({[(3-bromo-4-fluorophenyl)methyl]amino}carbonyl)phenyl]-N-[(3S)-piperidin-3-yl]pyrazine-2-carboxamide]", "values": [{"measurement": "pIC50", "value": "> 7.30"}]}, {"smiles": "Nc1ncc(-c2cccc(C(=O)NCc3cc(F)c(F)c(F)c3)c2)nc1C(=O)N[C@H]1CCCNC1", "note": "[Example 1028, 3-amino-N-[(3S)-piperidin-3-yl]-6-[3-({[(3,4,5-trifluorophenyl)methyl]amino}carbonyl)phenyl]pyrazine-2-carboxamide]", "values": [{"measurement": "pIC50", "value": "> 7.30"}]}, {"smiles": "Cc1cc(CNC(=O)c2cccc(-c3cnc(N)c(C(=O)N[C@H]4CCCNC4)n3)c2)ccc1F", "note": "[Example 1029, 3-amino-6-[3-({[(4-fluoro-3-methylphenyl)methyl]amino}carbonyl)phenyl]-N-[(3S)-piperidin-3-yl]pyrazine-2-carboxamide]", "values": [{"measurement": "pIC50", "value": "> 7.30"}]}, {"smiles": "Nc1ncc(-c2cccc(C(=O)NCc3cc(F)cc(F)c3F)c2)nc1C(=O)N[C@H]1CCCNC1", "note": "[Example 1030, 3-amino-N-[(3S)-piperidin-3-yl]-6-[3-({[(2,3,5-trifluorophenyl)methyl]amino}carbonyl)phenyl]pyrazine-2-carboxamide]", "values": [{"measurement": "pIC50", "value": "> 7.30"}]}, {"smiles": "Cc1ccc(F)cc1CNC(=O)c1cccc(-c2cnc(N)c(C(=O)N[C@H]3CCCNC3)n2)c1", "note": "[Example 1031, 3-amino-6-[3-({[(5-fluoro-2-methylphenyl)methyl]amino}carbonyl)phenyl]-N-[(3S)-piperidin-3-yl]pyrazine-2-carboxamide]", "values": [{"measurement": "pIC50", "value": "> 7.30"}]}, {"smiles": "Nc1ncc(-c2cccc(C(=O)NCc3cc(F)cc(Br)c3)c2)nc1C(=O)N[C@H]1CCCNC1", "note": "[Example 1032, 3-amino-6-[3-({[(3-bromo-5-fluorophenyl)methyl]amino}carbonyl)phenyl]-N-[(3S)-piperidin-3-yl]pyrazine-2-carboxamide]", "values": [{"measurement": "pIC50", "value": "> 7.30"}]}, {"smiles": "Nc1ncc(-c2cccc(C(=O)NCc3ccc(-n4cccn4)cc3)c2)nc1C(=O)N[C@H]1CCCNC1", "note": "[Example 1033, 3-amino-N-[(3S)-piperidin-3-yl]-6-{3-[({[4-(1H-pyrazol-1-yl)phenyl]methyl}amino)carbonyl]phenyl}pyrazine-2-carboxamide]", "values": [{"measurement": "pIC50", "value": "> 7.30"}]}, {"smiles": "Nc1ncc(-c2cccc(C(=O)NCc3cccc(-c4ccccc4)c3)c2)nc1C(=O)N[C@H]1CCCNC1", "note": "[Example 1034, 3-amino-6-(3-{[(biphenyl-3-ylmethyl)amino]carbonyl}phenyl)-N-[(3S)-piperidin-3-yl]pyrazine-2-carboxamide]", "values": [{"measurement": "pIC50", "value": "> 7.30"}]}, {"smiles": "Cc1ccccc1CNC(=O)c1cccc(-c2cnc(N)c(C(=O)N[C@H]3CCCNC3)n2)c1", "note": "[Example 1035, 3-amino-6-[3-({[(2-methylphenyl)methyl]amino}carbonyl)phenyl]-N-[(3S)-piperidin-3-yl]pyrazine-2-carboxamide]", "values": [{"measurement": "pIC50", "value": "> 7.30"}]}, {"smiles": "Cc1ccc(C)c(CNC(=O)c2cccc(-c3cnc(N)c(C(=O)N[C@H]4CCCNC4)n3)c2)c1", "note": "[Example 1036, 3-amino-6-[3-({[(2,5-dimethylphenyl)methyl]amino}carbonyl)phenyl]-N-[(3S)-piperidin-3-yl]pyrazine-2-carboxamide]", "values": [{"measurement": "pIC50", "value": "> 7.30"}]}, {"smiles": "Cc1cc(C)cc(CNC(=O)c2cccc(-c3cnc(N)c(C(=O)N[C@H]4CCCNC4)n3)c2)c1", "note": "[Example 1037, 3-amino-6-[3-({[(3,5-dimethylphenyl)methyl]amino}carbonyl)phenyl]-N-[(3S)-piperidin-3-yl]pyrazine-2-carboxamide]", "values": [{"measurement": "pIC50", "value": "> 7.30"}]}, {"smiles": "Cc1ccc(CNC(=O)c2cccc(-c3cnc(N)c(C(=O)N[C@H]4CCCNC4)n3)c2)c(C)c1", "note": "[Example 1038, 3-amino-6-[3-({[(2,4-dimethylphenyl)methyl]amino}carbonyl)phenyl]-N-[(3S)-piperidin-3-yl]pyrazine-2-carboxamide]", "values": [{"measurement": "pIC50", "value": "> 7.30"}]}, {"smiles": "COc1cccc(CNC(=O)c2cccc(-c3cnc(N)c(C(=O)N[C@H]4CCCNC4)n3)c2)c1", "note": "[Example 1039, 3-amino-6-[3-({[(3-methoxyphenyl)methyl]amino}carbonyl)phenyl]-N-[(3S)-piperidin-3-yl]pyrazine-2-carboxamide]", "values": [{"measurement": "pIC50", "value": "> 7.30"}]}]}
